Assay results as given in patent EP3755703B1, “N-(PHENYL)-2-(PHENYL)PYRIMIDINE-4-CARBOXAMIDE DERIVATIVES AND RELATED COMPOUNDS AS HPK1 INHIBITORS FOR TREATING CANCER” (Incyte Corporation, priority 2018, dated 2019).

Each molecule was assayed against T1, HPK1 (Homo sapiens, UniProt Q92918) (assay: HPK1 Kinase Binding Assay). Details: LanthaScreen tracer 222, one hour incubation at 25 °C.
T1 construct: purchased SignalChem M23-11G
T1 sequence (Q92918 1-346 limits assumed): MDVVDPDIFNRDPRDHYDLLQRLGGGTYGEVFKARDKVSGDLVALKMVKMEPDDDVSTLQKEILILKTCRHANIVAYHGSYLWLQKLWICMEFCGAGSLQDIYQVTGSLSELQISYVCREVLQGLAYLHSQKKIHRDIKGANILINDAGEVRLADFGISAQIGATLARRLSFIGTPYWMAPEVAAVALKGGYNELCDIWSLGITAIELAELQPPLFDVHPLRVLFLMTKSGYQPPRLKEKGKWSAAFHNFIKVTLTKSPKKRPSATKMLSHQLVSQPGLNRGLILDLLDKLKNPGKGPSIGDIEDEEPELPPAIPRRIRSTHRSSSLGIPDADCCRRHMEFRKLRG
Description: A stock solution of 1 mM test compound was prepared in DMSO. The compound plate was prepared by 3-fold and 11-point serial dilutions. 0.1 µL of the compound in DMSO was transferred from the compound plate to the white 384 well polystyrene plates. The assay buffer contained 50 mM HEPES, pH 7.5, 0.01% Tween-20, 5 mM MgCl2, 0.01% BSA, and 5 mM DTT. 5 µL of 4 nM active HPK1 (SignalChem M23-11G) prepared in the buffer was added to the plate. The enzyme concentration given was based on the given stock concentration reported by the vender. […] After one hour incubation at 25 °C, the plates were read on a PHERAstar FS plate reader (BMG Labtech). Ki values were determined.

`COc1cccc(F)c1-c1nccc(C(=O)Nc2ccc(-c3ccncc3C#N)c(F)c2N2C[C@@H]3C[C@H]2CN3)n1` [Example 40, N-(2-((1S,4S)-2,5-Diazabicyclo[2.2.1]heptan-2-yl)-4-(3-cyanopyridin-4-yl)-3-fluorophenyl)-2-(2-fluoro-6-methoxyphenyl)pyrimidine-4-carboxamide] and `COc1cccc(F)c1-c1nccc(C(=O)Nc2ccc(-c3ccncc3C#N)cc2N2C[C@@H](N)C[C@H]2CO)n1` [Example 41, N-(2-((2S,4S)-4-Amino-2-(hydroxymethyl)pyrrolidin-1-yl)-4-(3-cyanopyridin-4-yl)phenyl)-2-(2-fluoro-6-methoxyphenyl)pyrimidine-4-carboxamide] cannot be ordered by Ki: less than 100 nM for the first, less than 100 nM for the second.

`COc1cnccc1-c1ccc(NC(=O)c2ccnc(-c3c(F)cccc3OC)n2)c(N2C[C@@H](N)C[C@H]2CO)c1` [Example 44, N-(2-((2S,4S)-4-Amino-2-(hydroxymethyl)pyrrolidin-1-yl)-4-(3-methoxypyridin-4-yl)phenyl)-2-(2-fluoro-6-methoxyphenyl)pyrimidine-4-carboxamide] and `COc1cccc(F)c1-c1nccc(C(=O)Nc2ccc(-c3ccncc3C#N)cc2N2C[C@@H](O)C[C@H]2CO)n1` [Example 49, N-(4-(3-Cyanopyridin-4-yl)-2-((2S,4S)-4-hydroxy-2-(hydroxymethyl)pyrrolidin-1-yl)phenyl)-2-(2-fluoro-6-methoxyphenyl)pyrimidine-4-carboxamide] cannot be ordered by Ki: less than 100 nM for the first, less than 100 nM for the second.

`COc1cccc(F)c1-c1nccc(C(=O)Nc2ccc(-c3c(F)cccc3C#N)cc2N2C[C@@H](N)C[C@H]2CO)n1` [Example 45, N-(3-((2S,4S)-4-Amino-2-(hydroxymethyl)pyrrolidin-1-yl)-2'-cyano-6'-fluorobiphenyl-4-yl)-2-(2-fluoro-6-methoxyphenyl)pyrimidine-4-carboxamide] and `N#Cc1ccncc1-c1ccc(NC(=O)c2ccnc(-c3c(F)cccc3F)n2)c(N2C[C@@H](N)C[C@H]2CO)c1` [Example 62, N-(2-((2S,4S)-4-Amino-2-(hydroxymethyl)pyrrolidin-1-yl)-4-(4-cyanopyridin-3-yl)phenyl)-2-(2,6-difluorophenyl)pyrimidine-4-carboxamide] cannot be ordered by Ki: less than 100 nM for the first, less than 100 nM for the second.

`COc1cccc(F)c1-c1nccc(C(=O)Nc2ccc(C(C)C)cc2N2C[C@@H](N)C[C@H]2CO)n1` [Example 48, N-(2-((2S,4S)-4-Amino-2-(hydroxymethyl)pyrrolidin-1-yl)-4-isopropylphenyl)-2-(2-fluoro-6-methoxyphenyl)pyrimidine-4-carb oxamide] and `N[C@H]1C[C@@H](CO)N(c2ccc(F)cc2NC(=O)c2ccnc(-c3c(F)cccc3F)n2)C1` [Example 66, N-(2-((2S,4S)-4-Amino-2-(hydroxymethyl)pyrrolidin-1-yl)-5-fluorophenyl)-2-(2,6-difluorophenyl)pyrimidine-4-carboxamide] cannot be ordered by Ki: less than 100 nM for the first, less than 100 nM for the second.

`COc1cccc(F)c1-c1nccc(C(=O)Nc2ccc(-c3cnccc3C#N)cc2N2C[C@@H](C)NC[C@H]2CO)n1` [Example 50, N-(4-(4-Cyanopyridin-3-yl)-2-((2S,5R)-2-(hydroxymethyl)-5-methylpiperazin-1-yl)phenyl)-2-(2-fluoro-6-methoxyphenyl)pyrimidine-4-carboxamide] and `COc1cccc(F)c1-c1nccc(C(=O)Nc2ccc(-c3cnccc3C#N)cc2N2C[C@H](C)NC[C@H]2CO)n1` [Example 51, N-(4-(4-Cyanopyridin-3-yl)-2-((2S,5S)-2-(hydroxymethyl)-5-methylpiperazin-1-yl)phenyl)-2-(2-fluoro-6-methoxyphenyl)pyrimidine-4-carboxamide] cannot be ordered by Ki: less than 100 nM for the first, less than 100 nM for the second.

`COc1cccc(F)c1-c1nccc(C(=O)Nc2ccc(-c3cnccc3C#N)cc2N2CC3(CC3)NC[C@H]2CO)n1` [Example 52, (S)-N-(4-(4-Cyanopyridin-3-yl)-2-(6-(hydroxymethyl)-4,7-diazaspiro[2.5]octan-7-yl)phenyl)-2-(2-fluoro-6-methoxyphenyl)pyrimidine-4-carboxamide] and `COc1cccc(F)c1-c1nccc(C(=O)Nc2ccc(-c3cnccc3C#N)cc2N2C[C@@H](N)C[C@H]2C2(O)CC2)n1` [Example 53, N-(2-((2S,4S)-4-Amino-2-(1-hydroxycyclopropyl)pyrrolidin-1-yl)-4-(4-cyanopyridin-3-yl)phenyl)-2-(2-fluoro-6-methoxyphenyl)pyrimidine-4-carboxamide] cannot be ordered by Ki: less than 100 nM for the first, less than 100 nM for the second.

`COc1cccc(F)c1-c1nccc(C(=O)Nc2ccc(-c3cnccc3C#N)cc2N2C[C@@H](N)C[C@H]2C(C)(C)O)n1` [Example 54, N-(2-((2S,4S)-4-Amino-2-(2-hydroxypropan-2-yl)pyrrolidin-1-yl)-4-(4-cyanopyridin-3-yl)phenyl)-2-(2-fluoro-6-methoxyphenyl)pyrimidine-4-carboxamide] and `COc1cccc(F)c1-c1nccc(C(=O)Nc2ccc(-c3cnccc3C#N)cc2N2CC[C@H](N)C[C@@H]2C)n1` [Example 58, N-(2-((2S,4S)-4-Amino-2-methylpiperidin-1-yl)-4-(4-cyanopyridin-3-yl)phenyl)-2-(2-fluoro-6-methoxyphenyl)pyrimidine-4-carboxamide] cannot be ordered by Ki: less than 100 nM for the first, less than 100 nM for the second.

`COc1cccc(F)c1-c1nccc(C(=O)Nc2ccc(-c3cnccc3C#N)cc2N2[C@@H]3CN[C@@H](C3)[C@@H]2CO)n1` [Example 56, N-(4-(4-Cyanopyridin-3-yl)-2-((1S,3R,4S)-3-(hydroxymethyl)-2,5-diazabicyclo [2.2.1]heptan-2-yl)phenyl)-2-(2-fluoro-6-methoxyphenyl)pyrimidine-4-carboxamide] and `COc1cccc(F)c1-c1nccc(C(=O)Nc2ccc(-c3cnccc3C#N)cc2N2C[C@@H]3C[C@@]2(CO)CN3)n1` [Example 57, N-(4-(4-Cyanopyridin-3-yl)-2-((1S,4S)-1-(hydroxymethyl)-2,5-diazabicyclo[2.2.1]heptan-2-yl)phenyl)-2-(2-fluoro-6-methoxyphenyl)pyrimidine-4-carboxamide] cannot be ordered by Ki: less than 100 nM for the first, less than 100 nM for the second.

`COc1cccc(F)c1-c1cccc(C(=O)Nc2ccc(-c3cnccc3C#N)cc2N2C[C@@H](N)C[C@H]2CO)n1` [Example 59, N-(2-((2S,4S)-4-Amino-2-(hydroxymethyl)pyrrolidin-1-yl)-4-(4-cyanopyridin-3-yl)phenyl)-6-(2-fluoro-6-methoxyphenyl)picolinamide] and `COc1cccc(F)c1-c1nc(C(=O)Nc2ccc(-c3cnccc3C#N)cc2N2C[C@@H](N)C[C@H]2CO)ccc1C#N` [Example 60, N-(2-((2S,4S)-4-Amino-2-(hydroxymethyl)pyrrolidin-1-yl)-4-(4-cyanopyridin-3-yl)phenyl)-5-cyano-6-(2-fluoro-6-methoxyphenyl)picolinamide] cannot be ordered by Ki: less than 100 nM for the first, less than 100 nM for the second.

First: COc1ccc(C(=O)Nc2ccc(-c3cnccc3C#N)cc2N2C[C@@H](N)C[C@H]2CO)nc1-c1c(F)cccc1OC [Example 61, N-(2-((2S,4S)-4-Amino-2-(hydroxymethyl)pyrrolidin-1-yl)-4-(4-cyanopyridin-3-yl)phenyl)-6-(2-fluoro-6-methoxyphenyl)-5-methoxypicolinamide]
Second: Cc1cccc(F)c1-c1nccc(C(=O)Nc2ccc(-c3cnccc3C#N)cc2N2C[C@@H](N)C[C@H]2CO)n1 [Example 63, N-(2-((2S,4S)-4-Amino-2-(hydroxymethyl)pyrrolidin-1-yl)-4-(4-cyanopyridin-3-yl)phenyl)-2-(2-fluoro-6-methylphenyl)pyrimidine-4-carboxamide]
The Ki of the first is higher: 100 to 500 nM for the first, less than 100 nM for the second.

`N#Cc1ccncc1-c1ccc(NC(=O)c2ccnc(-c3c(F)cccc3Cl)n2)c(N2C[C@@H](N)C[C@H]2CO)c1` [Example 64, N-(2-((2S,4S)-4-Amino-2-(hydroxymethyl)pyrrolidin-1-yl)-4-(4-cyanopyridin-3-yl)phenyl)-2-(2-chloro-6-fluorophenyl)pyrimidine-4-carboxamide] and `COc1ccc(C#N)c(F)c1-c1nccc(C(=O)Nc2cc(F)ccc2N2C[C@@H](N)C[C@H]2CO)n1` [Example 67, N-(2-((2S,4S)-4-Amino-2-(hydroxymethyl)pyrrolidin-1-yl)-5-fluorophenyl)-2-(3-cyano-2-fluoro-6-methoxyphenyl)pyrimidine-4-carboxamide] cannot be ordered by Ki: less than 100 nM for the first, less than 100 nM for the second.

`COc1cccc(F)c1-c1nccc(C(=O)Nc2ccc(-c3c(C)nn(C)c3C)nc2N2C[C@@H](N)C[C@H]2CO)n1` [Example 65, N-(2-((2S,4S)-4-Amino-2-(hydroxymethyl)pyrrolidin-1-yl)-6-(1,3,5-trimethyl-1H-pyrazol-4-yl)pyridin-3-yl)-2-(2-fluoro-6-methoxyphenyl)pyrimidine-4-carboxamide] and `COc1ccc(F)c(F)c1-c1nccc(C(=O)Nc2cc(F)ccc2N2C[C@@H](N)C[C@H]2CO)n1` [Example 68, N-(2-((2S,4S)-4-Amino-2-(hydroxymethyl)pyrrolidin-1-yl)-5-fluorophenyl)-2-(2,3-difluoro-6-methoxyphenyl)pyrimidine-4-carboxamide] cannot be ordered by Ki: less than 100 nM for the first, less than 100 nM for the second.

For `[2H]C([2H])([2H])Oc1ccc(C)c(F)c1-c1nccc(C(=O)Nc2cc(F)ccc2N2C[C@@H](N)C[C@H]2CO)n1` [Example 69, N-(2-((2S,4S)-4-Amino-2-(hydroxymethyl)pyrrolidin-1-yl)-5-fluorophenyl)-2-(2-fluoro-6-(methoxy-d3)-3-methylphenyl)pyrimidine-4-carboxamide], the Ki was less than 100 nM.
